# Experiments:
# [1] = tested on: rat mesenchymal stem cells; test: Adipogenesis Assay 1 (IBMX/dexamethasone priming, peptide replaces insulin; Oil Red O or BODIPY); type: cell-based; details: for adipogenic activity, Oil Red O, fold change relative to negative control / Fold adipogenic induction vs. negative control / Specific activity (activity/1000 daltons): Assay 1; for adipogenic activity, Oil Red O, fold change relative to negative control: 0.5, 5, and 50 μg/ml over 3 weeks; for adipogenic activity of truncation fragments: truncation experiments, assays 1 and 2, FIGS. 7, 8, 9
# Protocol: Reagents: (1) 3-isobutyl-1-methylxanthine (IBMX) solution: 0.5M in DMSO; (2) Insulin solution: 10 mg/mL recombinant human insulin; (3) Dexamethasone solution in 10 mM in ethanol; (4) Oil Red O (0.36% in 60% isopropanol) or BODIPY dye (BODIPY 493/503 (4,4-difluoro-1,3,5,7-tetramethyl-4-bora-3a,4a-diaza-s-indacene-8-propionic acid, succinimidyl ester) from Invitrogen at 4-10 μM).
# Adipogenesis Initiation Media: mesenchymal stem cell expansion media/0.5 mM IBMX/1 μM dexamethasone. Mesenchymal stem cell expansion media is commercially available from Millipore. The IBMX Solution was diluted 1:1000 and the Dexamethasone Solution was diluted 1:10,000 in expansion media containing antibiotics and antimycotics. The prepared media was stored at 4° C.
# Adipogenesis Progression Media for positive control: mesenchymal stem cell expansion media/10 μg/mL insulin. The Insulin Solution was diluted 1:1000 in the expansion media and stored at 4° C.
# Experimental Adipogenesis Progression Media: mesenchymal stem cell expansion media/1-100 μg/mL RHAMM antagonist peptides.
# Adipogenesis Maintenance Media: mesenchymal stem cell expansion media containing antibiotics and antimycotics.
# Negative Control Media: DMEM/10% normal calf serum.
# Pre-adipocyte stem cells including bone marrow mesenchymal stem cells and fibroblasts including reticular and papillary dermal fibroblasts were propagated using standard tissue culture methods. Cells were trypsinized to remove the cells from the substratum. The trypsin was neutralized and cells were counted using a hemocytometer. Cells were resuspended at 30,000 cells/mL in expansion media. […] of cell suspension was plated per well of 24-well plate, with several wells left empty for blank well staining.
# Cells were incubated for 1-2 days until they reached confluency. Approximately 1.8 mL of media was removed from each well and replaced with 2 mL Adipogenesis Initiation Media. For negative control wells, expansion media only was used at this step and for subsequent media changes. For all media changes, media was replaced as gently as possible to avoid disturbing the monolayer.
# Cells were incubated for 48 hours at 37° C., 5% CO2. 2 mL media was removed from each well, and replaced with 2 mL either positive control or experimental Adipogenesis Progression Media per well. Cells were again incubated for 48 hours at 37° C., 5% CO2. 2 mL of media was removed from each well and replaced with 2 mL Adipogenesis Maintenance Media per well. In addition, media was added to the empty wells reserved for blank well staining Cells were incubated for at least 48 hours at 37° C., 5% CO2. Media was replaced every 48-72 hours. Accumulation of intracellular lipid droplets continued for at least 5 days.
# For quantification of Oil Red O staining, media was removed and cells were washed twice with PBS, using care to gently add the PBS. 0.5 mL Oil Red O solution was added per well of 24-well plate, including to the wells lacking cells, but containing media. Cells were incubated for 15 minutes at room temperature. The staining solution was then removed and wells were washed three times with 1 mL of phosphate buffered saline (PBS). In some experiments, following removal of the last wash, stained plates were scanned or photographed.
# Adipogenesis was quantified using a spectrophotometer or fluorometer. 0.25 mL Dye Extraction Solution (isopropyl alcohol) was added per well, and the plate was set on an orbital shaker or platform rocker for 15-30 minutes. Extracted dye was transferred into a cuvette and absorbance was read in a spectrophotometer at visible range for oil red 0 or transferred to a 96-well plate and quantified in a plate reader.
# For quantification of BODIPY dye uptake, media was removed and cells were washed twice with PBS, using care to gently add the PBS. Cells were then fixed in 3% paraformaldehyde, washed in PBS then incubated for 1 hour in the dark with the BODIPY solution, prepared in PBS. […]
# [2] = tested on: rat mesenchymal stem cells; test: Adipogenesis Assay 2 (dexamethasone/insulin/indomethacin induction, then peptide; Oil Red O or BODIPY); type: cell-based; details: for adipogenic activity of pentamers / adipogenic activity relative to KSEVSK hexamer: FIG. 35, groups labelled A2-, doses 1, 5, 25 μg, absorbance at 520 nm; for Fold adipogenic induction vs. negative control / Specific activity (activity/1000 daltons) / adipogenic activity, Oil Red O, fold change relative to negative control: Assay 2; for adipogenic activity, Oil Red O, fold change relative to negative control: 0.5, 5, and 50 μg/ml over 3 weeks
# Protocol: Reagents: The dexamethasone, insulin, and Oil Red O solutions were the same as described above for assay 1. Indomethacin Solution contained 10 mM indomethacin in methanol. The BODIPY 493/503 dye was used at a concentration of 4 μM.
# Adipogenesis Maintenance Media was prepared as described above.
# Adipogenesis Induction Media: To prepare 501 mL of Adipogenesis Induction Media, 50 μL of the 10 mM stock solution of dexamethasone, 500 μL of the 10 mg/ml stock solution of insulin, 5 ml of a 10 mM stock solution of indomethacin, and 5 mL of a 100× stock solution of penicillin and streptomycin were added to 490 mL of mesenchymal stem cell expansion media.
# Pre-adipocyte stem cells, bone marrow mesenchymal stem cells and fibroblasts such as dermal reticular and papillary fibroblasts were propagated using standard tissue culture methods. Cells were trypsinized to remove cells from the substratum, the trypsin was neutralized, and cells were counted using a hemocytometer. Cells were resuspended at 60,000 cells/ml in low glucose DMEM containing 10% calf serum. 1 mL of cell suspension per well was plated in a 24-well plate, with several wells left empty for blank well staining.
# Cells were incubated overnight and had reached confluency at this point. Approximately 1.8 ml of media was removed from each well and replaced with 2 ml Adipogenesis Induction Media. For negative control wells, expansion medium only was used at this step and for subsequent media changes. For all media changes, media was replaced as gently as possible to avoid disturbing the monolayer.
# Media was removed and replaced with 2 ml of maintenance medium containing either RHAMM antagonist peptides (experimental group) or insulin (concentration as in the induction medium used as positive control). […]
# Media was removed and BODIPY or Oil Red O staining was performed as described above for assay 1.
# As described above in Example 1, two different adipogenesis assays were used herein to assess the adipogenic effects of the peptides in rat mesenchymal stem cells. Assay 1 is an assay that is typically used to promote transdifferentiation of fibroblasts into adipocytes, whereas Assay 2 is typically used to promote differentiation of multi-potential mesenchymal progenitor cells into adipocytes. Immortalized rat bone marrow mesenchymal stem cells were used for both assays. These cells contain cells of different lineages, including fibroblasts, pre-adipocytes, pre-chondrocytes and pre-osteoblasts. Thus, Assay 1 was used to promote transdifferentiation of the fibroblast lineages into adipocytes and Assay 2 was used to promote differentiation of the pre-adipocytes into adipocytes.
# As described in Example 1 above, the priming stimulus for Assay 1 includes IBMX (3-isobutyl-1-methylxanthine) and dexamethasone, and then insulin as the final adipogenic stimulus. The priming stimulus for assay 2 includes IBMX, dexamethasone and indomethacin, and then insulin as the final adipogenic stimulus.
# [3] = tested on: 2D rat Pre-adipocytes (rat mesenchymal stem cells); test: Adipogenic potential ranking in 2D tissue culture, rat pre-adipocytes; type: cell-based; details: ranked on a scale of 0-5 with 5 representing the highest possible score
# Protocol: (§1) Examples of the adipogenic effects of RHAMM antagonists (peptide B (SEQ ID NO: 2), peptide P15-1 (SEQ ID NO. 1), and the antibody to peptide B) are summarized in Table 1. Peptide P15-1, peptide B, and a RHAMM antibody were assayed for their effects on pre-adipocyte stem cells in culture and when injected into the dermis of aged rats. Reagents were ranked on a scale of 0-5 with 5 representing the highest possible score and a completely filled in Harvey ball. “2D” refers to two-dimensional tissue culture.
# Rat skin = test: Rat dermal skin model of adipogenesis (injection into dermis); type: in vivo; details: injected into the dermis of aged rats; scale of 0-5, 5 highest
# Protocol: as §1
# In FIGS. 5A and 5B, data are shown as a ratio of the area (“surface area”) of fat pads expressed as a ratio of experimental/control values.
# The 6-mer (KSEVSK; SEQ ID NO: 3) was tested for adipogenic effect in rat skin in vivo. The results of this testing are shown in the photographs in FIG. 10.
# 2D human Pre-adipocytes = test: Adipogenic potential ranking in 2D tissue culture, human pre-adipocytes; type: cell-based; details: scale of 0-5, 5 highest
# Protocol: as §1
# [4] = tested on: mesenchymal stem cells or papillary fibroblasts; test: Adipogenesis by RHAMM antagonists in tissue culture and in vivo (summary statements)
# Excerpt: We hypothesized that the fragment and the antibody were blocking RHAMM function by competitive inhibition and by direct binding/blocking of RHAMM, respectively. Using truncation analyses, the size of the peptide was further reduced to 32 amino acids ([…] (SEQ ID NO: 92)) and it was shown that adipogenic activity is localized to a 15 amino acid peptide (KLKDENSQLKSEVSK (SEQ ID NO: 2); “peptide B” or “B-1” herein) shown in FIG. 2. This peptide was chemically synthesized to use as a competitive blocker, and antibodies were prepared against this sequence tagged with keyhold lymphocyte hemacyanin (KLH) to directly bind/block RHAMM function.
# The RHAMM sequence that contains adipogenic activity also contains the hyaluronan binding region of this protein.
# All of these reagents can replace insulin in their ability to promote adipogenesis in mesenchymal stem cells or papillary fibroblasts.
# mesenchymal stem cell = test: Adipogenesis with commercially available mesenchymal stem cell kit; type: cell-based
# Protocol: Ablation of RHAMM expression promotes adipogenesis (Tolg et al., 2006, J Cell Biol). A RHAMM carboxy-terminal sequence [^AA681LDAFEAEKQA LLNEHGATQEQLNKIRDSYAQLLGHQNLKQKIKHVVKLKDENSQLKSEVSKLRSQLVKRKQNELRLQGELDKALGIRHFDPSKAFCHASKENFTPLKEGNPNCC^aa794 (SEQ ID NO: 91)] was produced as a recombinant protein, and antibodies were prepared to this protein fragment.
molecule,measurement,setting,value
ASEVSA,"adipogenic activity, Oil Red O, fold change relative to negative control",[1],significantly increased adipogenic activity as compared to both the negative control and the KSEVSK 6-mer
KLKDENS [fragment corresponding to one half of peptide B],adipogenic activity of truncation fragments,[1],Only the SQLKSEVSK (SEQ ID NO: 44) fragment was found to be adipogenic
KSEVS,adipogenic activity of pentamers,[2],low level of adipogenic activity
same,adipogenic activity relative to KSEVSK hexamer,[2],much less active than the KSEVSK (SEQ ID NO: 3) hexamer
LKSEVSK,Fold adipogenic induction vs. negative control,[1],2
same,Specific activity (activity/1000 daltons),[1],2.26 activity/1000 daltons
same,adipogenic activity of truncation fragments,[1],also found to be adipogenic
same,Fold adipogenic induction vs. negative control,[2],3
same,Specific activity (activity/1000 daltons),[2],3.39 activity/1000 daltons
LSELEK,"adipogenic activity, Oil Red O, fold change relative to negative control",[2],increased adipogenesis
SEVSK,adipogenic activity of pentamers,[2],low level of adipogenic activity
same,adipogenic activity relative to KSEVSK hexamer,[2],much less active than the KSEVSK (SEQ ID NO: 3) hexamer
SIMMSR,"adipogenic activity, Oil Red O, fold change relative to negative control",[1],weakly adipogenic
same,"adipogenic activity, Oil Red O, fold change relative to negative control",[2],weakly adipogenic
SQLKSEVSK,Fold adipogenic induction vs. negative control,[1],2.4
same,Specific activity (activity/1000 daltons),[1],2.11 activity/1000 daltons
same,adipogenic activity of truncation fragments,[1],found to be adipogenic
same,Fold adipogenic induction vs. negative control,[2],3.0
same,Specific activity (activity/1000 daltons),[2],2.64 activity/1000 daltons
STMMRSH,"adipogenic activity, Oil Red O, fold change relative to negative control",[1],significantly greater adipogenic activity than the negative control
same,"adipogenic activity, Oil Red O, fold change relative to negative control",[2],active at the 0.5 μg/ml concentration
STMMSRSHK,adipogenic activity of truncation fragments,[1],has adipogenic activity
"STMMSRSHKTRSHHV [peptide P15-1, reference compound]","adipogenic potential, 2D rat Pre-adipocytes (rat mesenchymal stem cells)",[3],2
same,"adipogenic potential, In vivo Rat skin",Rat skin,2
same,"adipogenic potential, 2D human Pre-adipocytes",2D human Pre-adipocytes,2
same,adipogenesis in tissue culture and in vivo,[4],promotes adipogenesis in tissue culture and in vivo
STRMSR,"adipogenic activity, Oil Red O, fold change relative to negative control",[1],weakly adipogenic
same,"adipogenic activity, Oil Red O, fold change relative to negative control",[2],weakly adipogenic
STTMSR,"adipogenic activity, Oil Red O, fold change relative to negative control",[1],weakly adipogenic
same,"adipogenic activity, Oil Red O, fold change relative to negative control",[2],weakly adipogenic
SEQ ID NO: 91: RHAMM carboxy-terminal sequence (aa681-aa794) produced as a recombinant protein (protein) LDAFEAEKQALLNEHGATQEQLNKIRDSYAQLLGHQNLKQKIKHVVKLKDENSQLKSEVSKLRSQLVKRKQNELRLQGELDKALGIRHFDPSKAFCHASKENFTPLKEGNPNCC,adipogenesis,mesenchymal stem cell,promoted adipogenesis

# From patent US10494402B2, “Peptides that stimulate subcutaneous adipogenesis” (The Regents of the University of California, priority 2012, dated 2019)
